The test system of series [1] is bicistronic HCV replicon (replicon RNA, GenBank Accession No. AJ242654). In words: HCV Replicon Assay. Format: cell-based. The conditions noted are these: Hepatitis C virus, 72 h, read-out: Replicon IC50.

Structures are written as SMILES.

`CC(C)n1c(-c2ccc(S(=O)(=O)NC3CCC3)cn2)c(C#N)c2ccc(OC(F)F)cc21` [compound 2, 6-[3-cyano-6-(difluoromethoxy)-1-(propan-2-yl)-1H-indol-2-yl]-N-cyclobutylpyridine-3-sulfonamide] showed a melting point of 130 to 132 °C. Besides, the IC50 in series [1] was less than 0.5 µM.
For `C[C@H](NS(=O)(=O)c1cnc(-c2c(C#N)c3ccc(C4CC4)cc3n2C2CCC2)nc1)C1CC1` [compound 131, 2-(3-cyano-1-cyclobutyl-6-cyclopropyl-1H-indol-2-yl)-N-[(1S)-1-cyclopropylethyl]pyrimidine-5-sulfonamide] the same measures were 165 to 167 °C and less than 0.5 µM.
For `COc1ccc2c(c1)c(C#N)c(-c1ncc(S(=O)(=O)N[C@@H](C)C(F)(F)F)cn1)n2C1CCC1` [compound 569, 2-(3-cyano-1-cyclobutyl-5-methoxy-1H-indol-2-yl)-N-[(2S)-1,1,1-trifluoropropan-2-yl]pyrimidine-5-sulfonamide] the same measures were 203 to 205 °C and 0.5 to 2 µM.
For `Cc1cc2c(cc1Cl)c(C#N)c(-c1ccc(S(=O)(=O)N[C@@H](C)C(F)(F)F)cn1)n2C1CCC1` [compound 446, 6-(5-chloro-3-cyano-1-cyclobutyl-6-methyl-1H-indol-2-yl)-N-[(2S)-1,1,1-trifluoropropan-2-yl]pyridine-3-sulfonamide] the same measures were 209 to 210 °C and less than 0.5 µM.
With `Cc1cc2c(cc1O)c(C(N)=O)c(-c1ccc(S(=O)(=O)N[C@@H](C)C(F)(F)F)cn1)n2C1CCC1` [compound 833, 1-cyclobutyl-5-hydroxy-6-methyl-2-(5-{[(2S)-1,1,1-trifluoropropan-2-yl]sulfamoyl}pyridin-2-yl)-1H-indole-3-carboxamide], the melting point is 256 to 258 °C. Also, the 50% inhibitory concentration (IC50) in series [1] was 0.5 to 2 µM.
For `C[C@H](NS(=O)(=O)c1cnc(-c2c(C#N)c3ccc(OC(F)F)cc3n2C2CCCC2)nc1)C(F)(F)F` [compound 326, 2-[3-cyano-1-cyclopentyl-6-(difluoromethoxy)-1H-indol-2-yl]-N-[(2S)-1,1,1-trifluoropropan-2-yl]pyrimidine-5-sulfonamide], in that order: 231 to 232 °C and less than 0.5 µM.
Consider `COc1ccc2c(C#N)c(-c3ncc(S(=O)(=O)NC(CF)CF)cn3)n(C3CCCCC3)c2c1` [compound 520, 2-(3-cyano-1-cyclohexyl-6-methoxy-1H-indol-2-yl)-N-(1,3-difluoropropan-2-yl)pyrimidine-5-sulfonamide], for which the melting point is 209 to 215 °C. In addition, the IC50 in series [1] lay in the range of 0.5 to 2 µM.
The molecule `N#Cc1c(-c2ncc(S(=O)(=O)NC(CF)CF)cn2)n(C2CCCC2)c2cc(Cl)ccc12` [compound 157, 2-(6-chloro-3-cyano-1-cyclopentyl-1H-indol-2-yl)-N-(1,3-difluoropropan-2-yl)pyrimidine-5-sulfonamide] had a melting point of 233 to 238 °C. In series [1], the IC50 is less than 0.5 µM.
Turning to `N#Cc1c(-c2ccc(S(=O)(=O)NC(CF)CF)cn2)n(C2CCCC2)c2cc(F)ccc12` [compound 307, 6-(3-cyano-1-cyclopentyl-6-fluoro-1H-indol-2-yl)-N-(1,3-difluoropropan-2-yl)pyridine-3-sulfonamide], the melting point was 166 to 168 °C. For the same molecule, in series [1], the IC50 was less than 0.5 µM.
`Cc1cc2c(cc1F)c(C(N)=O)c(-c1ccc(S(=O)(=O)NC(C)(C)C(F)(F)F)cn1)n2C1CCCC1` [compound 701, 1-cyclopentyl-5-fluoro-6-methyl-2-{5-[(1,1,1-trifluoro-2-methylpropan-2-yl)sulfamoyl]pyridin-2-yl}-1H-indole-3-carboxamide] gave a melting point of 211 to 214 °C. Also, the IC50 in series [1] was less than 0.5 µM.
For `CCCn1c(-c2ccc(S(=O)(=O)N[C@H](C)C(F)(F)F)cn2)c(C#N)c2cc(F)c(OC(F)F)cc21` [compound 788, 6-[3-cyano-6-(difluoromethoxy)-5-fluoro-1-propyl-1H-indol-2-yl]-N-[(2R)-1,1,1-trifluoropropan-2-yl]pyridine-3-sulfonamide], the melting point lay within 160 to 166 °C. Also, the IC50 in series [1] was less than 0.5 µM.
For `Cc1ccc2c(C#N)c(-c3ncc(S(=O)(=O)NC(C)C)cn3)n(C(C)C)c2c1` [compound 167, 2-[3-cyano-6-methyl-1-(propan-2-yl)-1H-indol-2-yl]-N-(propan-2-yl)pyrimidine-5-sulfonamide] the same measures were 205 to 206 °C and less than 0.5 µM.
For `Cc1cc(-c2c(C#N)c3cc(F)c(OC(F)F)cc3n2C2CCC2)ncc1S(=O)(=O)N[C@@H](C)C(F)(F)F` [compound 822, 6-[3-cyano-1-cyclobutyl-6-(difluoromethoxy)-5-fluoro-1H-indol-2-yl]-4-methyl-N-[(2S)-1,1,1-trifluoropropan-2-yl]pyridine-3-sulfonamide] the same measures were 204 to 210 °C and less than 0.5 µM.
For `C[C@H](NS(=O)(=O)c1ccc(-c2c(C#N)c3cc(C(F)(F)F)ccc3n2-c2cnccn2)nc1)C(F)(F)F` [compound 897, 6-[3-cyano-1-(pyrazin-2-yl)-5-(trifluoromethyl)-1H-indol-2-yl]-N-[(2S)-1,1,1-trifluoropropan-2-yl]pyridine-3-sulfonamide], in that order: 255 to 258 °C and less than 0.5 µM.
For `CC(C)NS(=O)(=O)c1cnc(-c2c(C#N)c3ccc(F)cc3n2CC2CC2)nc1` [compound 139, 2-[3-cyano-1-(cyclopropylmethyl)-6-fluoro-1H-indol-2-yl]-N-(propan-2-yl)pyrimidine-5-sulfonamide], the melting point was 218 to 219 °C. Also, the IC50 in series [1] was 0.5 to 2 µM.
The molecule `CCc1cc2c(cc1F)c(C#N)c(-c1ccc(S(=O)(=O)N[C@@H](C)C(F)(F)F)cn1)n2-c1ccncc1` [compound 974, 6-[3-cyano-6-ethyl-5-fluoro-1-(pyridin-4-yl)-1H-indol-2-yl]-N-[(2S)-1,1,1-trifluoropropan-2-yl]pyridine-3-sulfonamide] displayed a melting point of 209 to 215 °C. For the same molecule, the IC50 in series [1] was less than 0.5 µM.
For `CCS(=O)(=O)Nc1ccc(-c2c(C#N)c3ccc(C4CC4)cc3n2C2CCC2)cn1` [compound 288, N-[5-(3-cyano-1-cyclobutyl-6-cyclopropyl-1H-indol-2-yl)pyridin-2-yl]ethanesulfonamide] the same measures were 241 to 243 °C and 0.5 to 2 µM.
For `CC(C)(NS(=O)(=O)c1ccc(-c2c(C#N)c3ccc(OC(F)F)cc3n2-c2ccc(F)cc2)nc1)C(F)(F)F` [compound 687, 6-[3-cyano-6-(difluoromethoxy)-1-(4-fluorophenyl)-1H-indol-2-yl]-N-(1,1,1-trifluoro-2-methylpropan-2-yl)pyridine-3-sulfonamide] the same measures were 215 to 216 °C and less than 0.5 µM.
For `CCc1cc2c(cc1F)c(C#N)c(-c1ccc(S(=O)(=O)N[C@@H](C)C(F)(F)F)cn1)n2-c1ccncn1` [compound 964, 6-[3-cyano-6-ethyl-5-fluoro-1-(pyrimidin-4-yl)-1H-indol-2-yl]-N-[(2S)-1,1,1-trifluoropropan-2-yl]pyridine-3-sulfonamide], in that order: 202 to 206 °C and less than 0.5 µM.
Consider `Cc1c(F)cc2c(C#N)c(-c3ccc(S(=O)(=O)NC4(C(F)(F)F)CC4)cn3)n(C3CCCC3)c2c1F` [compound 654, 6-(3-cyano-1-cyclopentyl-5,7-difluoro-6-methyl-1H-indol-2-yl)-N-[1-(trifluoromethyl)cyclopropyl]pyridine-3-sulfonamide], for which the melting point is 241 to 246 °C. Further, the IC50 in series [1] was less than 0.5 µM.
For `N#Cc1c(-c2ccc(S(=O)(=O)NC(CF)CF)cn2)n(CC2CC2)c2cc(Cl)ccc12` [compound 62, 6-[6-chloro-3-cyano-1-(cyclopropylmethyl)-1H-indol-2-yl]-N-(1,3-difluoropropan-2-yl)pyridine-3-sulfonamide], in that order: 223 to 227 °C and less than 0.5 µM.
In the case of `Cc1cc2c(cc1F)c(C#N)c(-c1ccc(S(=O)(=O)N[C@@H](C)C(F)(F)F)cn1)n2-c1cccnn1` [compound 892, 6-[3-cyano-5-fluoro-6-methyl-1-(pyridazin-3-yl)-1H-indol-2-yl]-N-[(2S)-1,1,1-trifluoropropan-2-yl]pyridine-3-sulfonamide], the melting point lay within 245 to 250 °C. For the same molecule, in series [1], the IC50 was less than 0.5 µM.
Molecule `Cc1cc2c(cc1F)c(C#N)c(-c1ccc(S(=O)(=O)N[C@@H](C)C(F)(F)F)cn1)n2C1CCC1` [compound 340, 6-(3-cyano-1-cyclobutyl-5-fluoro-6-methyl-1H-indol-2-yl)-N-[(2S)-1,1,1-trifluoropropan-2-yl]pyridine-3-sulfonamide] registered a melting point of 218 to 219 °C. Also, the IC50 in series [1] was less than 0.5 µM.
For `CC(C)NS(=O)(=O)c1cnc(-c2c(C#N)c3ccc(OC(F)F)cc3n2C2CCC2)nc1` [compound 127, 2-[3-cyano-1-cyclobutyl-6-(difluoromethoxy)-1H-indol-2-yl]-N-(propan-2-yl)pyrimidine-5-sulfonamide], in that order: 192 to 194 °C and less than 0.5 µM.
For `Cc1c(F)cc2c(C#N)c(-c3ccc(S(=O)(=O)NC(CF)CF)cn3)n(C3CCCC3)c2c1F` [compound 509, 6-(3-cyano-1-cyclopentyl-5,7-difluoro-6-methyl-1H-indol-2-yl)-N-(1,3-difluoropropan-2-yl)pyridine-3-sulfonamide], in that order: 199 to 203 °C and less than 0.5 µM.
`CCc1cc2c(cc1F)c(C#N)c(-c1ncc(S(=O)(=O)NC(CF)CF)cn1)n2C1CCCC1` [compound 638, 2-(3-cyano-1-cyclopentyl-6-ethyl-5-fluoro-1H-indol-2-yl)-N-(1,3-difluoropropan-2-yl)pyrimidine-5-sulfonamide] displayed a melting point of 184 to 185 °C. Besides, the IC50 in series [1] is less than 0.5 µM.
